The results in this text go back to patent US11154522B2, “Compositions and methods for treating acne vulgaris” (priority 2016, dated 2021).

Where two headings read alike, the source gives them in different places.

This data set is described as follows: Delivery of succinic acid to epidermis and dermis in presence of salicylic acid, Franz diffusion cells, different skin sample (Example 2). How it is done:
Skin from a single donor was stored frozen at −20° C. until needed. The skin was removed from the freezer, allowed to equilibrate to room temperature, and then cut to ˜2 cm×2 cm pieces before testing. FDCs with a 3.3 ml receiver volume and 0.55 cm^2 diffusional area were used. De-aerated isotonic phosphate buffered saline solution at pH 7.4 (PBS) containing 0.01% NaN3 was used as a solvent system for the receptor well medium (“Receptor Fluid”). Receptor wells were filled with the Receptor Fluid. The upper flange of the FDC receptor well was coated with vacuum grease to ensure a complete seal. Pieces of skin were mounted on the receptor cells, the conventional donor wells applied, and the assembly clamped together with uniform pressure using a pinch clamp. After assembly of the FDC, the skin was allowed to hydrate for 20 minutes in contact with the receptor fluid. Any FDCs that evidenced any leakage during this period were discarded. The integrity and quality of the skin was tested prior to application of the test formulations through measurement of the transdermal flux of tritiated water. Skin pieces evidencing an excessively high tritiated water flux were discarded and the tritiated water fluxes of accepted skin pieces was used to guide the distribution of formulation samples over the skin piece set. After removal of the tritiated water samples from the donor wells, the clamp and donor wells were removed. The skin was tapped dry with a KimWipe® and the receptor well solutions was replenished with fresh receptor well medium. Six replicates of each of the formulations were examined, in a batch of 36 FDC's; each test formulation was applied at a quasi-infinite dose of 20 μL cm^2 on skin maintained at 32° C. throughout the experiment. The Receptor Fluid was stirred with a magnetic stir bar throughout. A sample was abstracted from each receptor well at each of 4, 8 and 20 h, the receptor well being replenished with fresh Receptor Fluid. The concentration of succinic acid in each receptor well sample was assayed by a verified LC-MS analytical method. At the end of the experiment (20 h), residual formulation was removed from the skin exterior with a pipette. The FDCs were then be disassembled and the skin washed twice with EtOH-Water 50-50 and wiped dry with a KimWipe®. The successive topmost layers of the stratum corneum were removed by three (3) times applying cellophane tape to the skin and then pulling off the tape. Tape strippings were discarded, the material present in those peripheral layers being considered absorbed only superficially. The epidermal and dermal layers were separated, using mild heating if required. The epidermal and dermal sections were placed into 4 ml glass vials. DMSO was used as an extraction solvent (“Extraction Solvent”) for succinic acid from epidermal and dermal tissue. Two ml of the Extraction Solvent was added to each vial and the vials allowed to incubate for 24 h. At the end of the extraction period, aliquots of the Extraction Solvent were drawn, filtered and analyzed by LC-MS.
A topical formulation was prepared that contained 2% succinic acid, 1% salicylic acid (acne API), 15% ethanol, 15% propylene glycol, 3% Brij 30 and 15% of dimethyl isosorbide. The delivery of succinic to epidermis and dermis was tested as described in Example 1 in an independent experiment, using a different skin sample.

Turning to Capric tryiglyceride GTCC, the “enhancement of delivery of succinic acid by other penetration enhancing molecules” value was “did not result in enhanced delivery of succinic acid”. Same read-out and setting: the result for `CCOCCOCCO` [Transcutol P] reads “did not result in enhanced delivery of succinic acid”; that for Polysorbate 80, “did not result in enhanced delivery of succinic acid”. On to Polysorbate 20, for which the “enhancement of delivery of succinic acid by other penetration enhancing molecules” value (present in the formulation instead of Brij30 and dimethyl isosorbide) is “did not result in enhanced delivery of succinic acid”.

Turning to `O=C(O)CCC(=O)O` [succinic acid], the “succinic acid dose delivered to epidermis and dermis” value runs as follows: (human, 22 h, 2 %, pH 7.4) 33.22%; (human, 22 h, pH 7.4) 7.51%. In addition, the “fold lower amount delivered in absence vs presence of Brij30 and dimethyl isosorbide” value (human, 22 h, pH 7.4) worked out at 4.4 fold.
